{
  "source": "patent US8357413B2",
  "about": "“Process for the disinfection and/or preservation of harvested plant material” (Solvay (Societe Anonyme), priority 2003, dated 2013)",
  "system": "aerobic micro-organism activity",
  "assay": "Example 4: aerobic stability of forage (temperature rise in insulated boxes)",
  "protocol": "The treatments shown in examples 1 and 2 were also evaluated for their aerobic stability i.e. under conditions representing opening of the clamp to use the forage as feed thus allowing air to enter the clamp. In this case comparisons were made with untreated forage as in examples 1 and 2 and also with forage treated with a typical acid product, formic acid (85% w/w) applied at 2.5 liters per tonne of grass. 750 g of the forages were stored in insulated boxes placed in a controlled environment at 20-22° C. A temperature probe was inserted into each box linked to a data logger to monitor temperature changes hourly over a 6 day period.",
  "data": [
    {"compound": "O=CO", "note": "[Formic Acid, formic acid]", "values": [
      {"measurement": "Temperature Day 0", "setting": "750 g forage in insulated boxes at 20-22° C., Day 0", "value": 17.8, "unit": "°C"},
      {"measurement": "Temperature Day 6", "setting": "750 g forage in insulated boxes at 20-22° C., Day 6", "value": 20.5, "unit": "°C"},
      {"measurement": "Temperature increase", "setting": "Day 0 to Day 6", "value": "+2.7 °C"}
    ]}
  ]
}
